# Measurements published in patent US6350759B1, “Dihydro- and tetrahydro-quinoline compounds” (Adir et Compagnie, priority 1998, dated 2002).
# System: C57BL/6 mouse
# Experiment: Antagonism of dopaminergic striatonigral dysfunctions induced by methamphetamine in the C57BL/6 mouse
# Assay type: in vivo
# Conditions: dose 2×150 mg/kg i.p.
# Method: Male mice (C57BL/6 20-25 g) are given four injections of d-methamphetamine (5 mg/kg base, i.p.) at intervals of 2 hours (Sonsalla and Heikkila, Prog. Neuro-Psychopharmacolo. & Biol. Psychiat., 12, 345-354, 1988) and the anti-oxidant being tested is administered (i.p.) 30 minutes before the first and third injections of d-methamphetamine (Yamamoto and Zhu, J. Pharmacol. Exp. Ther. 287, 107-114, 1988). The rectal temperature is monitored throughout the duration of the experiment. The animals are sacrificed by decapitation 72 hours after the last injection of d-methamphetamine. The brains are rapidly extracted, and the striata are removed, frozen in liquid nitrogen and weighed. The striata are homogenised by sonication in 20 volumes of 0.1N HClO4, and the homogenate is centrifuged at 15000 g for 20 minutes at 4° C. The supernatants are collected for assaying the striata tissue levels of dopamine by means of HPLC coupled with coulometric detection (Bonhomme et al., Brain Res., 675, 215-233, 1995). The results are expressed as μg of dopamine/g of tissue. […] That is true especially of the compound of Example 1 administered in a dose of 2×150 mg/kg i.p.
row,Structure (SMILES),effect on dopaminergic deficit induced by methamphetamine (striatal dopamine)
1,"CCOc1ccc2c(c1)C=CC1(CCCCC1)N2.Cl [Example 1, 6-Ethoxy-1,2-dihydroquinoline-2-spirocyclohexane hydrochloride]",oppose the dopaminergic deficit

# System: Wistar rat
# Experiment: Neuroprotection in transient and global cerebral ischaemia in the Wistar rat
# Assay type: in vivo
# Conditions: administration 30 minutes before the start of the ischaemia; count 7 days after
# Method: This animal model (Pulsinelli and Brierley, Stroke 10, 267-272, 1979), is commonly used for the detection of central anti-ischaemic agents (Buchan et al., Neurosci. Lett., 132(2), 255-258, 1991).
# Under pentobarbital anaesthesia, the vertebral arteries of male Wistar rats (280-320 g, Charles River) are permanently occluded by electrocoagulation and carotid ligatures are placed around each common carotid. 24 hours later, ischaemia is brought about for […] by clamping the carotids with the carotid ligatures. This ischaemic episode causes delayed neurone death at the level of the pyramidal cells of the hippocampus. Neurone death is measured by a neurone count on sections of brain (7 μm, staining: hematoxylin-eosin) of rats sacrificed 7 days after the ischaemic episode. The results are expressed as a percentage of viable hippocampal neurones compared with the total hippocampal neurone population. […] That is true especially of the compound of Example 1, which, on administration 30 minutes before the start of the ischaemia, induces a reduction by a factor of 2.7.
row,Structure (SMILES),"reduction of hippocampal neurone death, factor"
1,"CCOc1ccc2c(c1)C=CC1(CCCCC1)N2.Cl [Example 1, 6-Ethoxy-1,2-dihydroquinoline-2-spirocyclohexane hydrochloride]",2.7

# System: Wistar rat
# Experiment: Delayed hippocampal neurodegeneracy induced by kainic acid in the Wistar rat
# Assay type: in vivo
# Conditions: 150 mg/kg i.p. 30 minutes before kainic acid 12 mg/kg s.c.; count 7 days later
# Method: This method is frequently used as a model of temporal epilepsy in humans (Ben-Ari, Neurosci., 14, 375-403, 1985).
# Male Wistar rats (180-220 g, CERJ) are given kainic acid (12 mg/kg) by the subcutaneous route. The animals are sacrificed by decapitation 7 days later. The brains are removed and then cut, in the frozen state, into frontal sections of 7 μm, which are stained (hematoxylin-eosin). Hippocampal neurone death is assessed by a neurone count at the level of the CA3 layer of the hippocampus. The results are expressed as a percentage of viable neurones in the CA3 layer compared with the total neurone population.
row,Structure (SMILES),"reduction in neurone death (CA3 layer), factor"
1,"CCOc1ccc2c(c1)C=CC1(CCCCC1)N2.Cl [Example 1, 6-Ethoxy-1,2-dihydroquinoline-2-spirocyclohexane hydrochloride]",3

# System: not given
# Experiment: not given
# Conditions: not given
row,melting point,Structure (SMILES)
1,132 °C,CC(C)(C)Oc1ccc2c(c1)C=CC1(CCCCC1)N2.Cl
2,191 °C,COc1ccc2c(c1)C=CC1(CCCCC1)N2.Cl
3,176 °C,C1=CC2(CCCCC2)Nc2ccc(Oc3ccccc3)cc21.Cl
4,158 to 161 °C,CCOc1c(C)c(C)c2c(c1C)C=CC1(CCCCC1)N2.Cl
5,180 °C,CC(C)(C)C(=O)Oc1ccc2c(c1)C=CC1(CCCCC1)N2.Cl
6,154 to 155 °C,CCOc1cccc2c1NC1(C=C2)CCCCC1.Cl
7,166 to 169 °C (dec.),CCOc1c(C(C)C)cc2c(c1C(C)C)C=CC1(CCCCC1)N2.Cl
8,175 to 180 °C,CCOc1c(C)cc2c(c1C)C=CC1(CCCCC1)N2.Cl
9,227 to 230 °C,CCOc1c(C(C)C)cc2c(c1C(C)C)CCC(C)(C)N2.Cl
10,192 to 198 °C (dec.),CCOc1c(C)c(C)c2c(c1C)CCC1(CCCCC1)N2.Cl
